Reference: PubChem BioAssay (NCI)
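Tested at 5 concentrations; 48 h exposure; 96-well plates; endpoints linearly interpolated, else capped at highest concentration. Here, GI50 denotes the concentration required for 50% inhibition of growth. Definition used: TGI = concentration required for complete inhibition of growth.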

Experiments:
Test in all cases: DTP human tumour cell line panel, 48 h
[1] = test system: 786-0 renal
[2] = test system: A498 renal
[3] = test system: A549 NSCLC
[4] = test system: ACHN renal
[5] = test system: BT-549 breast
[6] = test system: CAKI-1 renal
[7] = test system: CCRF-CEM leukemia
[8] = test system: COLO 205 colon
[9] = test system: DU-145 prostate
[10] = test system: EKVX NSCLC
[11] = test system: HCC-2998 colon
[12] = test system: HCT-116 colon
[13] = test system: HCT-15 colon
[14] = test system: HL-60(TB) leukemia
[15] = test system: HOP-62 NSCLC
[16] = test system: HOP-92 NSCLC
[17] = test system: HS 578T breast
[18] = test system: HT29 colon
[19] = test system: IGROV1 ovarian
[20] = test system: K-562 leukemia
[21] = test system: KM12 colon
[22] = test system: LOX IMVI melanoma
[23] = test system: M14 melanoma
[24] = test system: MALME-3M melanoma
[25] = test system: MCF7 breast
[26] = test system: MDA-MB-231 breast
[27] = test system: MDA-MB-435
[28] = test system: MOLT-4 leukemia
[29] = test system: NCI-H226 lung
[30] = test system: NCI-H23 lung
[31] = test system: NCI-H460 lung
[32] = test system: NCI-H522 lung
[33] = test system: NCI/ADR-RES ovarian
[34] = test system: OVCAR-3 ovarian
[35] = test system: OVCAR-4 ovarian
[36] = test system: OVCAR-5 ovarian
[37] = test system: OVCAR-8 ovarian
[38] = test system: PC-3 prostate
[39] = test system: RPMI-8226 leukemia
[40] = test system: RXF 393 renal
[41] = test system: SF-268 CNS
[42] = test system: SF-295 CNS
[43] = test system: SF-539 CNS
[44] = test system: SK-MEL-2 melanoma
[45] = test system: SK-MEL-28 melanoma
[46] = test system: SK-MEL-5 melanoma
[47] = test system: SK-OV-3 ovarian
[48] = test system: SN12C renal
[49] = test system: SNB-19 CNS
[50] = test system: SNB-75 CNS
[51] = test system: SR leukemia
[52] = test system: SW-620 colon
[53] = test system: T-47D breast
[54] = test system: TK-10 renal
[55] = test system: U251 CNS
[56] = test system: UACC-257 melanoma
[57] = test system: UACC-62 melanoma
[58] = test system: UO-31 renal

For `CN1CCN(Cc2ccc(C(=O)Nc3cncc(C#Cc4cnc(N)c5ccccc45)c3)cc2C(F)(F)F)CC1`, the GI50 [1] was 1.78 µM, the TGI [1] was 3.25 µM and the GI50 [2] was 1.52 µM. It also gave a TGI [2] of 3.73 µM, a GI50 [3] of 1.94 µM and a TGI [3] of 3.85 µM. The GI50 [4] was 1.52 µM, the TGI [4] was 2.97 µM and the GI50 [5] was 12.7 µM. For the same compound, the TGI [5] was 25.4 µM, the GI50 [6] was 1.7 µM and the TGI [6] was 3.69 µM. For the same compound, the GI50 [7] was 2.91 µM, the TGI [7] was 9.07 µM and the GI50 [8] was 3.69 µM. For the same compound, the TGI [8] was 13.3 µM, the GI50 [9] was 1.78 µM and the TGI [9] was 3.49 µM. For the same compound, the GI50 [10] was 1.99 µM, the TGI [10] was 6.06 µM and the GI50 [11] was 2.19 µM. It also gave a TGI [11] of 4.74 µM, a GI50 [12] of 1.36 µM and a TGI [12] of 2.7 µM. The GI50 [13] was 1.94 µM, the TGI [13] was 4.6 µM and the GI50 [14] was 1.12 µM. The TGI [14] was 2.99 µM, the GI50 [15] was 2.19 µM and the TGI [15] was 4.42 µM. It also gave a GI50 [16] of 2.42 µM, a TGI [16] of 11.3 µM and a GI50 [17] of 2.98 µM. The TGI [17] was 14.6 µM, the GI50 [18] was 2.05 µM and the TGI [18] was 5.02 µM. It also gave a GI50 [19] of 1.87 µM, a TGI [19] of 4.43 µM and a TGI [20] of 1.15 µM. It also gave a GI50 [21] of 0.788 µM, a TGI [21] of 2.48 µM and a GI50 [22] of 1.75 µM. For the same compound, the TGI [22] was 3.17 µM, the GI50 [23] was 4.22 µM and the TGI [23] was 14.8 µM. The GI50 [24] was 1.71 µM, the TGI [24] was 3.25 µM and the GI50 [25] was 1.67 µM. The TGI [25] was 3.39 µM, the GI50 [26] was 1.37 µM and the TGI [26] was 2.87 µM. For the same compound, the GI50 [27] was 1.71 µM, the TGI [27] was 3.12 µM and the GI50 [28] was 2.17 µM. The TGI [28] was 5.31 µM, the GI50 [29] was 3.18 µM and the TGI [29] was 27.5 µM. The GI50 [30] was 1.85 µM, the TGI [30] was 4.41 µM and the GI50 [31] was 1.76 µM. It also gave a TGI [31] of 3.39 µM, a GI50 [32] of 1.95 µM and a TGI [32] of 4.26 µM. It also gave a GI50 [33] of 1.93 µM, a TGI [33] of 4.22 µM and a GI50 [34] of 1.95 µM. The TGI [34] was 3.71 µM, the GI50 [35] was 1.18 µM and the TGI [35] was 3.05 µM. For the same compound, the GI50 [36] was 2.67 µM, the TGI [36] was 6.91 µM and the GI50 [37] was 2.32 µM. For the same compound, the TGI [37] was 5.38 µM, the GI50 [38] was 2.74 µM and the TGI [38] was 10.1 µM. The GI50 [39] was 2.15 µM, the TGI [39] was 5.27 µM and the GI50 [40] was 1.55 µM. It also gave a TGI [40] of 3.01 µM, a GI50 [41] of 4.42 µM and a TGI [41] of 17.2 µM. For the same compound, the GI50 [42] was 1.86 µM, the TGI [42] was 3.46 µM and the GI50 [43] was 1.54 µM. It also gave a TGI [43] of 2.89 µM, a GI50 [44] of 2.29 µM and a TGI [44] of 5.2 µM. It also gave a GI50 [45] of 1.75 µM, a TGI [45] of 3.22 µM and a GI50 [46] of 1.73 µM. The TGI [46] was 3.12 µM, the GI50 [47] was 10.8 µM and the TGI [47] was 22.9 µM. For the same compound, the GI50 [48] was 1.8 µM, the TGI [48] was 3.47 µM and the GI50 [49] was 2.49 µM. It also gave a TGI [49] of 5.69 µM, a GI50 [50] of 3.42 µM and a TGI [50] of 12.3 µM. The GI50 [51] was 2.09 µM, the TGI [51] was 5.17 µM and the GI50 [52] was 1.78 µM. The TGI [52] was 3.89 µM, the GI50 [53] was 11.6 µM and the TGI [53] was 32.2 µM. For the same compound, the GI50 [54] was 1.99 µM, the TGI [54] was 3.74 µM and the GI50 [55] was 1.78 µM. For the same compound, the TGI [55] was 3.33 µM, the GI50 [56] was 2.14 µM and the TGI [56] was 4.34 µM. For the same compound, the GI50 [57] was 5.22 µM, the TGI [57] was 17.5 µM and the GI50 [58] was 1.59 µM. The TGI [58] was 2.98 µM.
